Measured values from ChEMBL document CHEMBL4813922, “Discovery of a novel small-molecule inhibitor of Fam20C that induces apoptosis and inhibits migration in triple negative breast cancer” (Eur J Med Chem, 2021).

Tests used:
MDA-MB-468 = assay: Antiproliferative activity against human MDA-MB-468 cells measured by MTT assay; format: functional, cell-based
MCF7 = assay: Antiproliferative activity against human MCF7 cells measured by MTT assay; format: functional, cell-based
[1] = target: T1, Extracellular serine/threonine protein kinase FAM20C (Homo sapiens) (UniProt Q8IXL6); assay: Inhibition of Fam20C (unknown origin) assessed as reduction in inorganic phosphate release in presence of ATP at 10 uM measured by Malachite green phosphate staining based micro plate reader assay relative to control
T1 sequence (whole entry): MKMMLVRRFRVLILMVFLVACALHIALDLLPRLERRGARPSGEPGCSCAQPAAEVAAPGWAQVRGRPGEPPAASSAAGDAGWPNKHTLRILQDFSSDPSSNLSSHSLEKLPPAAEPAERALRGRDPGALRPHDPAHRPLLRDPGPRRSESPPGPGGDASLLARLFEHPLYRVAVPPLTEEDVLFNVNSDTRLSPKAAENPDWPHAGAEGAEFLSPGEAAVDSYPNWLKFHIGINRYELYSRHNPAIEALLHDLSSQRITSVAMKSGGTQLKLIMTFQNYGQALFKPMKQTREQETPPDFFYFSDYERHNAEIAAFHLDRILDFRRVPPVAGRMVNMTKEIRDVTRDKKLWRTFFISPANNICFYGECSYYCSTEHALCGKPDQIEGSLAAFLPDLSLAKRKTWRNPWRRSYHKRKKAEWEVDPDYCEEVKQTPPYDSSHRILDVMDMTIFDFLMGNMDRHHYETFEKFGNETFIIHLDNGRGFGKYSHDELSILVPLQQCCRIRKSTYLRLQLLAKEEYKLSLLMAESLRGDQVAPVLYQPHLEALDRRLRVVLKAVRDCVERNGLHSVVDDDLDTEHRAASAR

MDA-MB-231 = assay: Antiproliferative activity against human MDA-MB-231 cells measured by MTT assay; format: functional, cell-based

SMILES	IC50 (MDA-MB-468)	IC50 (MCF7)	inhibition [1]	IC50 (MDA-MB-231)
COc1ccc(Nc2cc(C(F)(F)F)nc(Nc3ccc(NS(=O)(=O)c4ccc(OC)cc4)cc3)n2)cc1	> 50 µM	> 50 µM	43%	21.2 µM
COc1ccc(Nc2ccnc(Nc3ccc(NS(=O)(=O)c4ccc(C(F)(F)F)cc4)cc3)n2)cc1	> 50 µM	34.8 µM	18%	27.2 µM
O=S(=O)(Nc1ccc(Nc2nc(Nc3ccc(F)cc3)cc(C(F)(F)F)n2)cc1)c1ccccc1OC(F)(F)F	> 50 µM	16.7 µM	24%	20.8 µM
COc1ccc(Nc2ccnc(Nc3ccc(NS(=O)(=O)c4ccc(OC)cc4)cc3)n2)cc1	14.8 µM	29 µM	25%	6.87 µM
COc1cc(Nc2ccnc(Nc3ccc(NS(=O)(=O)c4ccc(C)cc4)cc3)n2)cc(OC)c1OC	46.8 µM	> 50 µM	28%	17.3 µM
COc1ccc(C(=O)Nc2ccc(Nc3nccc(Nc4ccc(OC)cc4C)n3)cc2)cc1	> 50 µM	> 50 µM	23%	23.3 µM
COc1ccc(Nc2ccc(Nc3nc(C)cc(Nc4ccc(OC)cc4)n3)cc2)cc1	> 50 µM	> 50 µM	14%	> 50 µM
COc1ccc(Nc2cc(C(F)(F)F)nc(Nc3ccc(NS(=O)(=O)c4ccc(C(F)(F)F)cc4)cc3)n2)cc1	25.3 µM	17.3 µM	19%	23.3 µM
Cc1ccc(S(=O)(=O)Nc2ccc(Nc3nc(Nc4ccc(F)cc4)cc(C(F)(F)F)n3)cc2)c(Cl)c1	> 50 µM	> 50 µM	18%	27.8 µM
COc1ccc(Nc2cc(C)nc(Nc3ccc(NS(=O)(=O)c4ccccc4Cl)cc3)n2)cc1	> 50 µM	> 50 µM	40%	15.3 µM
COc1ccc(Nc2cc(C(F)(F)F)nc(Nc3ccc(NS(=O)(=O)c4c(Cl)cc(C)cc4OC)cc3)n2)cc1	> 50 µM	> 50 µM	11%	> 50 µM
